Measurements: US20030087834A1, “Increased fertility and improved fetal development drug” (priority 1999, published 2003)

Tests used:
[1] = tested on: Female Crl:CD (SD) BR Rats; experiment: Developmental toxicity study in rats: reproductive performance and fetal development; type: in vivo, rat; conditions: for Females pregnant (%) / Fertility index / Litters with resorptions (%) / Number of dead fetuses / Number of females bearing viable fetuses / Number of females pregnant / Number of litters with resorptions / Total number of viable fetuses / Body weight (g) of viable fetuses / Body weight (g) of viable fetuses: Female fetuses / Body weight (g) of viable fetuses: Male fetuses / Number of corpora lutea / Number of female fetuses / Number of implantation sites / Number of males fetuses / Number of resorptions / Postimplantation loss = (resorptions/implantations) / Preimplantation loss = (corpora lutea-implants)/(corpora lutea): Days 6 to 15 of gestation; for Total number of viable fetuses: Day 20; for Body weight (g) of viable fetuses / Body weight (g) of viable fetuses: Female fetuses / Body weight (g) of viable fetuses: Male fetuses / Number of corpora lutea / Number of female fetuses / Number of implantation sites / Number of males fetuses / Number of resorptions / Postimplantation loss = (resorptions/implantations) / Preimplantation loss = (corpora lutea-implants)/(corpora lutea): mean ±SD
Source text: (§1) Safety tests performed on tagatose in its development as a low-calorie sweetener included developmental toxicity studies in rats. Rats are accepted by the US FDA as good models for humans in studying safety and efficacy of food additives and drugs. Newly impregnated rats were placed on various doses of tagatose in their daily diet. Female rats were housed with males nightly in a one-to-one ratio, and each morning inspections for vaginal plugs were made, and in their absence, vaginal smears were taken and tested for sperm. Those females which had been mated were selected for monitoring of fetal development and assigned to tagatose dose groups in a manner so as to provide an equal distribution of mated females among groups and also to equalize the Day 0 gestation mean body weights among the groups. There were 24 mated females in each group. On Days 6-15 of gestation three of the groups received respective total doses of 4,000, 12,000 and 20,000 mg/kg body wt/day administered via gastric intubation in two equally divided doses separated by a four-hour interval. Each dose was administered in 30 ml/kg body weight of distilled, deionized water. […] For a period of 20 days following mating, the rats were observed and measurements taken daily. Upon the 20th day, the rats were killed and a wide variety of physical, toxicological, and fetal developmental parameters was determined for treatment effects. […] However, I noted unpredictable, novel and beneficial effects with respect to fertility and fetal development.

Female Crl:CD(SD)BR Rats = experiment: Food consumption in pregnant rats fed D-tagatose; type: in vivo, rat; conditions: for Food intake (g/animal) / Food intake (g/kg body wt/day): mean ±SD
Source text: as §1
One of the common problems associated with pregnancy is overeating which can result in excess weight gain with its concomitant health risks to the mother and fetus. […] This represents a clear health advantage for both dam and fetus receiving tagatose.

human = experiment: Examples 1-4: human taking tagatose before and during pregnancy; type: in vivo
Source text: A 70 kg human with a history of difficulty in conceiving begins taking tagatose twice daily at five g per dose, beginning one month before an attempt to conceive. […] A 70 kg human with a history of spontaneous abortions and stillbirths takes tagatose twice daily at five g per dose, beginning one month before an attempt to conceive. […] A 70 kg human takes precautions against giving birth to a below average weight infant by taking tagatose twice daily at five g per dose, beginning one month before an attempt to conceive. […] A 70 kg human inclined toward obesity desires a child, but is concerned that pregnancy may increase their food intake causing weight problems as experienced in their past pregnancies. They take tagatose twice daily at five g per dose, beginning one month before an attempt to conceive. […] They deliver a healthy, normal child.

[2] = 4,000 mg/kg/day, Days 0-6 of pregnancy (pretreatment)
[3] = 4,000 mg/kg/day, Days 6-9 of pregnancy
[4] = 4,000 mg/kg/day, Days 9-12 of pregnancy
[5] = 4,000 mg/kg/day, Days 12-16 of pregnancy
[6] = 4,000 mg/kg/day, Days 16-20 of pregnancy (posttreatment)
[7] = 12,000 mg/kg/day, Days 0-6 of pregnancy (pretreatment)
[8] = 12,000 mg/kg/day, Days 6-9 of pregnancy
[9] = 12,000 mg/kg/day, Days 9-12 of pregnancy
[10] = 12,000 mg/kg/day, Days 12-16 of pregnancy
[11] = 12,000 mg/kg/day, Days 16-20 of pregnancy (posttreatment)
[12] = 20,000 mg/kg/day, Days 0-6 of pregnancy (pretreatment)
[13] = 20,000 mg/kg/day, Days 6-9 of pregnancy
[14] = 20,000 mg/kg/day, Days 9-12 of pregnancy
[15] = 20,000 mg/kg/day, Days 12-16 of pregnancy
[16] = 20,000 mg/kg/day, Days 16-20 of pregnancy (posttreatment)

SMILES: O=C(CO)[C@@H](O)[C@@H](O)[C@H](O)CO [D-tagatose]
- Females pregnant (%) ([1]; 4,000 mg/kg/day): 100%
- Fertility index ([1]; 4,000 mg/kg/day): 100
- Litters with resorptions (%) ([1]; 4,000 mg/kg/day): 78.3%
- Number of dead fetuses ([1]; 4,000 mg/kg/day): 0
- Number of females bearing viable fetuses ([1]; 4,000 mg/kg/day): 23
- Number of females pregnant ([1]; 4,000 mg/kg/day): 23
- Number of litters with resorptions ([1]; 4,000 mg/kg/day): 18
- Total number of viable fetuses ([1]; 4,000 mg/kg/day): 354
- Body weight (g) of viable fetuses ([1]; 4,000 mg/kg/day): 3.56 ± 0.21 g
- Body weight (g) of viable fetuses: Female fetuses ([1]; 4,000 mg/kg/day): 3.49 ± 0.20 g
- Body weight (g) of viable fetuses: Male fetuses ([1]; 4,000 mg/kg/day): 3.64 ± 0.22 g
- Number of corpora lutea ([1]; 4,000 mg/kg/day): 17.7 ± 2.8
- Number of female fetuses ([1]; 4,000 mg/kg/day): 8.0 ± 2.2
- Number of implantation sites ([1]; 4,000 mg/kg/day): 16.5 ± 2.3
- Number of males fetuses ([1]; 4,000 mg/kg/day): 7.4 ± 2.3
- Number of resorptions ([1]; 4,000 mg/kg/day): 1.1 ± 0.9
- Postimplantation loss = (resorptions/implantations) ([1]; 4,000 mg/kg/day): 0.068 ± 0.051
- Preimplantation loss = (corpora lutea-implants)/(corpora lutea) ([1]; 4,000 mg/kg/day): 0.053 ± 0.113
- Females pregnant (%) ([1]; 12,000 mg/kg/day): 91.3%
- Fertility index ([1]; 12,000 mg/kg/day): 91.3
- Litters with resorptions (%) ([1]; 12,000 mg/kg/day): 28.6%
- Number of dead fetuses ([1]; 12,000 mg/kg/day): 0
- Number of females bearing viable fetuses ([1]; 12,000 mg/kg/day): 21
- Number of females pregnant ([1]; 12,000 mg/kg/day): 21
- Number of litters with resorptions ([1]; 12,000 mg/kg/day): 6
- Total number of viable fetuses ([1]; 12,000 mg/kg/day): 322
- Body weight (g) of viable fetuses ([1]; 12,000 mg/kg/day): 3.75 ± 0.32 g
- Body weight (g) of viable fetuses: Female fetuses ([1]; 12,000 mg/kg/day): 3.65 ± 0.35 g
- Body weight (g) of viable fetuses: Male fetuses ([1]; 12,000 mg/kg/day): 3.84 ± 0.33 g
- Number of corpora lutea ([1]; 12,000 mg/kg/day): 17.7 ± 2.9
- Number of female fetuses ([1]; 12,000 mg/kg/day): 7.5 ± 2.2
- Number of implantation sites ([1]; 12,000 mg/kg/day): 15.9 ± 2.9
- Number of males fetuses ([1]; 12,000 mg/kg/day): 7.8 ± 2.3
- Number of resorptions ([1]; 12,000 mg/kg/day): 0.5 ± 0.9
- Postimplantation loss = (resorptions/implantations) ([1]; 12,000 mg/kg/day): 0.043 ± 0.087
- Preimplantation loss = (corpora lutea-implants)/(corpora lutea) ([1]; 12,000 mg/kg/day): 0.094 ± 0.151
- Females pregnant (%) ([1]; 20,000 mg/kg/day): 100%
- Fertility index ([1]; 20,000 mg/kg/day): 100
- Litters with resorptions (%) ([1]; 20,000 mg/kg/day): 54.2%
- Number of dead fetuses ([1]; 20,000 mg/kg/day): 0
- Number of females bearing viable fetuses ([1]; 20,000 mg/kg/day): 24
- Number of females pregnant ([1]; 20,000 mg/kg/day): 24
- Number of litters with resorptions ([1]; 20,000 mg/kg/day): 13
- Total number of viable fetuses ([1]; 20,000 mg/kg/day): 350
- Body weight (g) of viable fetuses ([1]; 20,000 mg/kg/day): 3.57 ± 0.24 g
- Body weight (g) of viable fetuses: Female fetuses ([1]; 20,000 mg/kg/day): 3.49 ± 0.19 g
- Body weight (g) of viable fetuses: Male fetuses ([1]; 20,000 mg/kg/day): 3.68 ± 0.27 g
- Number of corpora lutea ([1]; 20,000 mg/kg/day): 17.4 ± 2.8
- Number of female fetuses ([1]; 20,000 mg/kg/day): 7.1 ± 2.3
- Number of implantation sites ([1]; 20,000 mg/kg/day): 15.3 ± 2.9
- Number of males fetuses ([1]; 20,000 mg/kg/day): 7.5 ± 2.3
- Number of resorptions ([1]; 20,000 mg/kg/day): 0.8 ± 0.8
- Postimplantation loss = (resorptions/implantations) ([1]; 20,000 mg/kg/day): 0.047 ± 0.049
- Preimplantation loss = (corpora lutea-implants)/(corpora lutea) ([1]; 20,000 mg/kg/day): 0.107 ± 0.162
- Adverse effects in the dams or fetuses ([1]; 4,000, 12,000 and 20,000 mg/kg body wt/day via gastric intubation, Days 6-15 of gestation, killed Day 20): No adverse effects in the dams or fetuses were found
- Fetal weight versus control rats ([1]; each tagatose group, total, males and females): weighed more than the fetuses of the control rats
- Fetal weight relative to normal weight range for age ([1]; fetuses from rats on tagatose, normal range 3.35-3.86 g males, 3.19-3.63 g females): within the normal weight range for their ages
- Food intake (g/animal) (Female Crl:CD(SD)BR Rats; [2]): 144 ± 11 g/animal
- Food intake (g/kg body wt/day) (Female Crl:CD(SD)BR Rats; [2]): 103 ± 7 g/kg body wt/day
- Food intake (g/animal) (Female Crl:CD(SD)BR Rats; [3]): 70 ± 5 g/animal
- Food intake (g/kg body wt/day) (Female Crl:CD(SD)BR Rats; [3]): 84 ± 4 g/kg body wt/day
- Food intake (g/animal) (Female Crl:CD(SD)BR Rats; [4]): 78 ± 7 g/animal
- Food intake (g/kg body wt/day) (Female Crl:CD(SD)BR Rats; [4]): 91 ± 5 g/kg body wt/day
- Food intake (g/animal) (Female Crl:CD(SD)BR Rats; [5]): 112 ± 9 g/animal
- Food intake (g/kg body wt/day) (Female Crl:CD(SD)BR Rats; [5]): 90 ± 5 g/kg body wt/day
- Food intake (g/animal) (Female Crl:CD(SD)BR Rats; [6]): 129 ± 10 g/animal
- Food intake (g/kg body wt/day) (Female Crl:CD(SD)BR Rats; [6]): 94 ± 3 g/kg body wt/day
- Food intake (g/animal) (Female Crl:CD(SD)BR Rats; [7]): 148 ± 8 g/animal
- Food intake (g/kg body wt/day) (Female Crl:CD(SD)BR Rats; [7]): 104 ± 8 g/kg body wt/day
- Food intake (g/animal) (Female Crl:CD(SD)BR Rats; [8]): 58 ± 6 g/animal
- Food intake (g/kg body wt/day) (Female Crl:CD(SD)BR Rats; [8]): 69 ± 7 g/kg body wt/day
- Food intake (g/animal) (Female Crl:CD(SD)BR Rats; [9]): 73 ± 6 g/animal
- Food intake (g/kg body wt/day) (Female Crl:CD(SD)BR Rats; [9]): 84 ± 5 g/kg body wt/day
- Food intake (g/animal) (Female Crl:CD(SD)BR Rats; [10]): 105 ± 9 g/animal
- Food intake (g/kg body wt/day) (Female Crl:CD(SD)BR Rats; [10]): 83 ± 5 g/kg body wt/day
- Food intake (g/animal) (Female Crl:CD(SD)BR Rats; [11]): 137 ± 9 g/animal
- Food intake (g/kg body wt/day) (Female Crl:CD(SD)BR Rats; [11]): 99 ± 5 g/kg body wt/day
- Food intake (g/animal) (Female Crl:CD(SD)BR Rats; [12]): 149 ± 14 g/animal
- Food intake (g/kg body wt/day) (Female Crl:CD(SD)BR Rats; [12]): 107 ± 9 g/kg body wt/day
- Food intake (g/animal) (Female Crl:CD(SD)BR Rats; [13]): 43 ± 12 g/animal
- Food intake (g/kg body wt/day) (Female Crl:CD(SD)BR Rats; [13]): 51 ± 14 g/kg body wt/day
- Food intake (g/animal) (Female Crl:CD(SD)BR Rats; [14]): 67 ± 7 g/animal
- Food intake (g/kg body wt/day) (Female Crl:CD(SD)BR Rats; [14]): 80 ± 7 g/kg body wt/day
- Food intake (g/animal) (Female Crl:CD(SD)BR Rats; [15]): 94 ± 10 g/animal
- Food intake (g/kg body wt/day) (Female Crl:CD(SD)BR Rats; [15]): 77 ± 6 g/kg body wt/day
- Food intake (g/animal) (Female Crl:CD(SD)BR Rats; [16]): 138 ± 11 g/animal
- Food intake (g/kg body wt/day) (Female Crl:CD(SD)BR Rats; [16]): 102 ± 6 g/kg body wt/day
- Weight loss in the dams (Female Crl:CD(SD)BR Rats; except Day 6 to Day 9, attributed to laxation in the high dose groups): no consistent weight loss in the dams
- Total daily food intake versus control group (Female Crl:CD(SD)BR Rats; period on tagatose, Day 6 through Day 15): less than the daily food intakes of rats in the control group
- Birth weight (human; 70 kg human female, family history of low birth weight babies, five g twice daily): delivers a baby within the normal birth weight range
- Food intake during pregnancy (human; 70 kg human inclined toward obesity, five g twice daily): their average daily diet does not increase
- Conception (increased fertility) (human; 70 kg human, history of difficulty conceiving, five g twice daily from one month before attempt): their attempt is successful and they are pregnant
- Live birth (human; 70 kg human, history of spontaneous abortions and stillbirths, five g twice daily): delivering a live birth
